Source: patent US12612386B2, “Heteroaryl-triazole compounds as pesticides” (Bayer Aktiengesellschaft, priority 2020, dated 2026)

Tests used:
Type in all cases: in vivo
[1] = tested on: larvae of the banded cucumber beetle (Diabrotica balteata); assay: Diabrotica balteata spray test; conditions: 168 h, 100 g/ha (=32 μg/well), after 7 days, read-out: efficacy (seedling growth)
Experimental: Diabrotica balteata—Spray Test
(§1) • Solvent: 78.0 parts by weight of acetone • 1.5 parts by weight of dimethylformamide • Emulsifier: alkylarylpolyglycol ether
(§2) To produce a suitable preparation of active compound, 1 part by weight of active compound is mixed with the stated amount of solvent, and the concentrate is diluted with water, containing an emulsifier concentration of 1000 ppm, to the desired concentration. Further test concentrations are prepared by dilution with emulsifier containing water.
Soaked wheat seeds (Triticum aestivum) are placed in a multiple well plate filled with agar and some water and are incubated for 1 day to germinate (5 seeds per well). The germinated wheat seeds are sprayed with a test solution containing the desired concentration of the active ingredient. Afterwards each unit is infected with 10-20 larvae of the banded cucumber beetle (Diabrotica balteata).
After 7 days efficacy in % is determined. 100% means all the seedlings have grown up like in the untreated, uninfected control; 0% means none of the seedlings have grown.

[2] = tested on: green peach aphid (Myzus persicae); assay: Myzus persicae spray test (MYZUPE); conditions: 120 h; for mortality at 100 g/ha: after 5 days; for Emax at 20 g/ha: 20 g ai/ha; for Emax at 100 g/ha: 100 g ai/ha
Experimental: Myzus persicae—Spray Test
• Solvent: 78.0 parts by weight acetone • 1.5 parts by weight dimethylformamide • Emulsifier: alkylarylpoly glycol ether
as §2, with “solvents” for “solvent,”, “and” for “and the concentrate”
Chinese cabbage (Brassica pekinensis) leaf disks infected with all instars of the green peach aphid (Myzus persicae), are sprayed with a preparation of the active ingredient of the desired concentration.
After 5 days mortality in % is determined. 100% means all aphids have been killed and 0% means none of the aphids have been killed.
Myzus persicae—Spray Test (MYZUPE)
(§3) • Solvent: 78.0 parts by weight acetone • 1.5 parts by weight dimethylformamide • Emulsifier: alkylarylpolyglycol ether
After the specified period of time, mortality in % is determined. 100% means all aphids have been killed and 0% means none of the aphids have been killed.

[3] = tested on: larvae of the southern green stink bug (Nezara viridula); assay: whole plant or invertebrate; conditions: 96 h
Experimental: Nezara viridula—Spray Test
as §1, §2
Barley plants (Hordeum vulgare) are sprayed with a test solution containing the desired concentration of the active ingredient and are infested with larvae of the southern green stink bug (Nezara viridula).
After 4 days mortality in % is determined. 100% means all the stink bugs have been killed; 0% means none of the stink bugs have been killed.

[4] = tested on: fall armyworm larvae (Spodoptera frugiperda); assay: whole plant or invertebrate; conditions: 168 h; for Emax at 20 g/ha / Emax at 100 g/ha: SPODFR, 7 dat (Table 4), read-out: % Efficacy; for Emax at 20 g/ha: 20 g ai/ha; for Emax at 100 g/ha: 100 g ai/ha
Experimental: Spodoptera frugiperda—Spray Test
as §3
as §2, with “solvents” for “solvent,”, “and” for “and the concentrate”
Maize (Zea mays) leaf sections are sprayed with a preparation of the active ingredient of the desired concentration. Once dry, the leaf sections are infested with fall armyworm larvae (Spodoptera frugiperda).
After 7 days mortality in % is determined. 100% means all caterpillars have been killed and 0% means none of the caterpillars have been killed.
Spodoptera frugiperda—Spray Test (SPODFR)
After the specified period of time, mortality in % is determined. 100% means all caterpillars have been killed and 0% means none of the caterpillars have been killed.

[5] = MYZUPE, 5 dat (Table 4), read-out: % Efficacy

Structure (SMILES)	pest or weed control at 32 µg/disc, 100 g/ha [1] [%]	mortality at 100 g/ha [2] [%]	mortality at 500 g/ha [3] [%]	mortality at 100 g/ha [4] [%]	other results
Cc1nc([C@H](C)NC(=O)c2cc(Br)cc(OC(F)(F)F)c2)n(-c2cc(C(N)=O)ncn2)n1 [I-12]	100	90	100	100	–
C[C@H](NC(=O)c1cc(OC(F)(F)F)cc(S(=O)(=O)C(F)F)c1)c1ncnn1-c1cc(C(N)=O)ncn1 [I-45]	100	90	100	100	–
C[C@H](NC(=O)c1cccc(I)c1)c1ncnn1-c1cc(C(N)=O)ncn1 [I-48]	100	90	100	100	–
C[C@H](NC(=O)c1cc(OC(F)(F)F)cc(S(=O)(=O)C(F)(F)F)c1)c1ncnn1-c1cc(C(N)=O)ncn1 [I-58]	100	90	100	100	–
C[C@H](NC(=O)c1cc(Cl)cc(S(=O)(=O)C(F)(F)F)c1)c1ncnn1-c1ccccn1 [I-068 Known from WO 2019197468, reference compound]	–	–	–	–	Emax at 20 g/ha [2, 5]: 0%; Emax at 100 g/ha [2, 5]: 0%
Cc1nc([C@H](C)NC(=O)c2cc(Br)cc(Br)c2)n(-c2cc(C(N)=O)ncn2)n1 [I-71]	100	90	90	100	–
C[C@H](NC(=O)c1cc(Cl)cc(S(=O)(=O)C(F)(F)F)c1)c1ncnn1-c1cc(C#N)ccn1 [I-075 Known from WO 2019197468, reference compound]	–	–	–	–	Emax at 20 g/ha [2, 5]: 70%; Emax at 100 g/ha [2, 5]: 90%; Emax at 20 g/ha [4]: 33%; Emax at 100 g/ha [4]: 100%
C[C@H](NC(=O)c1cc(Cl)cc(S(=O)(=O)C(F)(F)F)c1)c1ncnn1-c1cc(C(N)=O)ncn1 [I-84]	100	90	100	100	Emax at 4 g/ha ([2]; MYZUPE, 4 g ai/ha, 5 dat (Table 4), read-out: % Efficacy): 90%; Emax at 20 g/ha [2, 5]: 100%; Emax at 100 g/ha [2, 5]: 90%; Emax at 20 g/ha [4]: 100%; Emax at 100 g/ha [4]: 100%
CNC(=O)c1cc(-n2nc(C)nc2[C@H](C)NC(=O)c2cc(Br)cc(OC(F)F)c2)ncn1 [I-88]	100	100	100	100	–
CC(C)N(C)C(=O)c1cc(-n2ncnc2[C@H](C)NC(=O)c2cc(OC(F)F)cc(OC(F)F)c2)ncn1 [I-97]	–	90	–	100	–
CNC(=O)c1cc(-n2nc(C)nc2[C@H](C)NC(=O)c2cc(OC(F)F)cc(OC(F)F)c2)ncn1 [I-99]	100	90	100	100	–
CC(C)N(C)C(=O)c1cc(-n2ncnc2[C@H](C)NC(=O)c2cc(Br)cc(OC(F)F)c2)ncn1 [I-103]	100	90	–	100	–
CNC(=O)c1cc(-n2ncnc2[C@H](C)NC(=O)c2cccc(OC(F)(F)F)c2)ncn1 [I-110]	100	90	100	100	–
C[C@H](NC(=O)c1cc(Br)cc(OC(F)(F)C(F)F)c1)c1ncnn1-c1cc(C(N)=O)ncn1 [I-112]	100	100	–	100	–
C[C@H](NC(=O)c1cc(Cl)cc(OC(F)(F)C(F)F)c1)c1ncnn1-c1cc(C(N)=O)ncn1 [I-113, 6-(5-{(1S)-1-[3-chloro-5-(1,1,2,2-tetrafluoroethoxy)benzamido]ethyl}-1H-1,2,4-triazol-1-yl)pyrimidine-4-carboxamide]	–	90	–	100	–
C[C@H](NC(=O)c1cc(Br)cc(C#N)c1)c1ncnn1-c1cc(C(N)=O)ncn1 [I-124]	100	90	100	100	mortality at 100 g/ha [3]: 100%

Structure (SMILES)	pest or weed control at 32 µg/disc, 100 g/ha [1] [%]	mortality at 100 g/ha [2] [%]	mortality at 500 g/ha [3] [%]	mortality at 100 g/ha [4] [%]	other results
C[C@H](NC(=O)c1cc(Br)cc(S(C)(=O)=O)c1)c1nc(C2CC2)nn1-c1cc(C(N)=O)ncn1 [I-143]	–	100	100	100	–
C[C@H](NC(=O)c1cc(Br)nc(Br)c1)c1ncnn1-c1cc(C(N)=O)ncn1 [I-148]	100	–	100	100	–
C[C@H](NC(=O)c1cc(Cl)cc(S(C)(=O)=O)c1)c1nc(C2CC2)nn1-c1cc(C(N)=O)ncn1 [I-150]	–	90	100	100	–
C[C@H](NC(=O)c1cc(OC(F)F)cc(OC(F)F)c1)c1nc(C2CC2)nn1-c1cc(C(N)=O)ncn1 [I-152]	100	100	–	100	–
C[C@H](NC(=O)c1cc(OC(F)(F)F)cc(S(=O)(=O)C(F)F)c1)c1nc(C2CC2)nn1-c1cc(C(=O)N(C)C)ncn1 [I-156]	100	90	–	100	–
C[C@H](NC(=O)c1cc(OC(F)(F)F)cc(C2CC2)c1)c1nc(C2CC2)nn1-c1cc(C(=O)N(C)C)ncn1 [I-159]	100	90	–	100	–
C[C@H](NC(=O)c1cc(Cl)cc(S(C)(=O)=O)c1)c1nc(C2CC2)nn1-c1cc(C(=O)N(C)C)ncn1 [I-160]	100	100	–	83	–
C[C@H](NC(=O)c1cc(Cl)cc(S(=O)(=O)C(F)F)c1)c1nc(C2CC2)nn1-c1cc(C(=O)N(C)C)ncn1 [I-161]	100	90	–	100	–
C[C@H](NC(=O)c1cc(I)cc(OC(F)F)c1)c1ncnn1-c1cc(C(N)=O)ncn1 [I-162]	100	90	100	100	–
CC(C)NC(=O)c1cc(-n2ncnc2[C@H](C)NC(=O)c2cc(OC(F)(F)F)cc(C3(C#N)CC3)c2)ncn1 [I-163]	100	100	–	100	–
C[C@H](NC(=O)c1cc(C(F)(F)F)cc(S(C)(=O)=O)c1)c1nc(C2CC2)nn1-c1cc(C(=O)N(C)C)ncn1 [I-164]	80	100	–	–	–
C[C@H](NC(=O)c1cc(Cl)cc(OC(F)(F)F)c1)c1nc(C2CC2)nn1-c1cc(C(=O)N(C)C)ncn1 [I-166]	100	100	–	100	–
C[C@H](NC(=O)c1cc(OC(F)(F)F)cc(C2(C#N)CC2)c1)c1nc(C2CC2)nn1-c1cc(C(=O)N(C)C)ncn1 [I-167]	80	100	–	100	–
CCNC(=O)c1cc(-n2ncnc2[C@H](C)NC(=O)c2cc(OC(F)(F)F)cc(C3(C#N)CC3)c2)ncn1 [I-168]	100	100	–	100	–
C[C@H](NC(=O)c1cc(OC(F)(F)F)cc(C2(C#N)CC2)c1)c1ncnn1-c1cc(C(=O)NC2CC2)ncn1 [I-169]	100	90	–	100	–
